What was measured:
[1] = test system: Primary fibroblasts from donors with Friedreich Ataxia (FRDA); test: BSO Assay (cell viability of Friedreich Ataxia fibroblasts under BSO oxidative stress); format: cell-based; conditions: Homo sapiens, Fibroblast
Method: Primary fibroblasts were derived from donors with molecular diagnosis for Friedreich Ataxia (FRDA) and control donors with no mitochondrial disease. Cell lines were obtained from Coriell Cell Repositories (Camden, N.J.; catalog numbers GM04078, GM08402 and GM08399 respectively). All cell types were diagnosed on the molecular level for intronic GAA triplet repeat length of at least 400-450 repeats using a PCR-based method. Experiments were carried out as described in the literature (M. L. Jauslin et al., Human Mol. Genet., 2002, 11, 3055-3063): Cells were seeded in microtiter plates at a density of 4′000 cells per 100 μl in growth medium consisting of 25% (v/v) M199 EBS and 64% (v/v) MEM EBS without phenol red (Bioconcept, Allschwil, Switzerland) supplemented with 10% (v/v) fetal calf serum (PAA Laboratories, Linz, Austria), 100 U/ml penicillin, 100 μg/ml streptomycin (PAA Laboratories, Linz, Austria), 10 μg/ml insulin (Sigma, Buchs, Switzerland), 10 ng/ml EGF (Sigma, Buchs, Switzerland), 10 ng/ml bFGF (PreproTech, Rocky Hill, N.J.) and 2 mM glutamine (Sigma, Buchs, Switzerland). The cells were incubated in the presence of various test compounds for 24 h before addition of L-buthionine-(S,R)-sulfoximine (BSO) to a final concentration of 1 mM. Cell viability was measured after the first signs of toxicity appeared in the BSO-treated controls (typically after 16 to 48 h). The cells were stained for 60 min at room temperature in PBS with 1.2 μM calceinAM and 4 μM ethidium homodimer (Live/Dead assay, Molecular Probes, Eugene, Oreg.). Fluorescence intensity was measured with a Gemini Spectramax XS spectrofluorimeter (Molecular Devices, Sunnyvale, Calif.) using excitation and emission wavelengths of 485 nm and 525 nm respectively.

20S Proteasome = target: T1, 20S Proteasome (Oryctolagus cuniculus, UniProt G1T4Q9); test: 20S Proteasome Assay; format: biochemical, Rabbit; conditions: read-out: 20S Prot IC50
T1 sequence (G1T4Q9 60-263): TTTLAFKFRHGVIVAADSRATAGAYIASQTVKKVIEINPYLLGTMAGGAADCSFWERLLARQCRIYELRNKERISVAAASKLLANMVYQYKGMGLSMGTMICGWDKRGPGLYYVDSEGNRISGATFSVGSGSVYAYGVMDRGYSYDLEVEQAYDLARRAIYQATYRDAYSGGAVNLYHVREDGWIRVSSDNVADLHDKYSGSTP
Method: 25 μl of a reaction buffer containing 400 μM of the fluorogenic substrate Suc-Leu-Leu-Val-Tyr-AMC (Bachem) are dispensed per well of a white microtiter plate. Test compounds dissolved in 0.5 μl DMSO are added. To start the reaction; 25 μl of reaction buffer containing 35 ng of enzyme (20S Proteasome, Rabbit, Calbiochem) are added. The increase in fluorescence (excitation at 360 nm; emission at 440 nm) is measured over 30 min at 30° C. at 30″. The IC50's are then determined from the slopes.

[2] = test system: cellular calpains in C2C12 myoblasts; test: Calpain Inhibition Assay in C2C12 Myoblasts; format: cell-based; conditions: read-out: Calp I IC50 Myoblast
Method: This assay is aimed at monitoring the ability of the substance to inhibit cellular calpains. C2C12 myoblasts are grown in 96-well plates in growth medium (DMEM, 20% foetal calf serum) until they reach confluency. The growth medium is then replaced by fusion medium (DMEM, 5% horse serum). 24 hours later the fusion medium is replaced by fusion medium containing the test substances dissolved in 1 μl DMSO. After 2 hours of incubation at 37° C. the cells are loaded with the calpain fluorogenic substrate Suc-Leu-Tyr-AMC at 400 μM in 50 μl of a reaction buffer containing 135 mM NaCl; 5 mM KCl; 4 mM CaCl2; 1 mM MgCl2; 10 mM Glucose; 10 mM HEPES pH 7.25 for 20 min at room temperature. The calcium influx, necessary to activate the cellular calpains, is evoked by the addition of 50 μl reaction buffer containing 20 μM of the calcium ionophore Br-A-23187 (Molecular Probes). The fluorescence of the cleavage product AMC is measured as described above during 60 min at 37° C. at intervals of 1 min. The IC50 values are determined as described above. Comparison of the IC50 determined in the enzymatic calpain inhibition assay to the IC50 determined in the C2C12 myoblasts calpain inhibiton assay, allows to evaluate the cellular uptake or the membrane permeability of the substance.

CCNC(=O)C(=O)[C@H](Cc1ccc(Cl)cc1)NC(=O)[C@@H](NC(=O)[C@H](Cc1ccccc1)NC(=O)CCCCc1cccs1)C(C)C [Example 1] gave an EC50 [1] of 700 nM, an IC50 (20S Proteasome) of 120 nM and an IC50 [2] of 50 nM.

Compound CCNC(=O)C(=O)C(Cc1ccc(Cl)cc1)NC(=O)C(NC(=O)C(Cc1cccc2ccccc12)NC(=O)CCCCc1cccs1)C(C)C (stereo not drawn) [Example 22] has an EC50 [1] of 10 nM, an IC50 (20S Proteasome) of under 10 nM and an IC50 [2] of 150 nM.

CCNC(=O)C(=O)C(Cc1ccc(OC)cc1)NC(=O)C(NC(=O)C(CCc1ccccc1)NC(=O)CCc1cccs1)C(C)C (stereo not drawn) [Example 520] gave an EC50 [1] of under 1 nM, an IC50 (20S Proteasome) of 23 nM and an IC50 [2] of 10 nM.

— US20080058324A1, “Alpha-Keto Carbonyl Calpain Inhibitors” (SANTHERA PHARMACEUTICALS (SCHWEIZ) AG, priority 2004, published 2008)
